# Assays:
# Format in all cases: in vivo
# corn (Zea mays) = assay: Test A postemergence
# Procedure, shortened: (§1)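 Visual injury, scored on a 0–100 scale relative to untreated controls, was recorded about 10 d after application. Treatments were a preemergence soil spray over planted seeds or a postemergence spray on plants at the one- to two-leaf stage, 2 to 10 cm tall, all in loam soil–sand blend in the greenhouse.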
# [1] = tested on: barnyardgrass (Echinochloa crus-galli); assay: Test A postemergence
# Procedure, shortened: as §1
# Kochia (Kochia scoparia) [2] = assay: Test A postemergence
# Procedure, shortened: as §1
# [3] = tested on: ryegrass, Italian (Italian ryegrass, Lolium multiflorum); assay: Test A postemergence
# Procedure, shortened: as §1
# [4] = tested on: ragweed (common ragweed, Ambrosia elatior); assay: Test A postemergence
# Procedure, shortened: as §1
# [5] = tested on: blackgrass (Alopecurus myosuroides); assay: Test A postemergence
# Procedure, shortened: as §1
# [6] = tested on: wheat (Triticum aestivum); assay: Test A postemergence
# Procedure, shortened: as §1
# [7] = tested on: giant foxtail (Setaria faberii); assay: Test A postemergence
# Procedure, shortened: as §1
# [8] = tested on: Galium (catchweed bedstraw, Galium aparine); assay: Test A postemergence
# Procedure, shortened: as §1
# [9] = tested on: pigweed (Amaranthus retroflexus); assay: Test A postemergence
# Procedure, shortened: as §1
# [10] = tested on: barnyardgrass (Echinochloa crus-galli); assay: Test B flooded paddy test; settings: Flood, 0 to 100 scale where 0 is no effect and 100 is complete control; for Plant response rating, Barnyardgrass: 13 to 15 d
# Procedure, shortened: (§2)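 Percent control, visually estimated after 13–15 d in the greenhouse on a 0–100 basis, compares treated pots with untreated ones; compound was put into paddy water 3 cm above the soil when plants had two leaves.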
# [11] = tested on: ducksalad (Heteranthera limosa); assay: Test B flooded paddy test; settings: Flood, 0 to 100 scale where 0 is no effect and 100 is complete control; for Plant response rating, Ducksalad: 13 to 15 d
# Procedure, shortened: as §2
# rice (Oryra sativa) = assay: Test B flooded paddy test; settings: Flood, 0 to 100 scale where 0 is no effect and 100 is complete control; for Plant response rating, Rice: 13 to 15 d
# Procedure, shortened: as §2
# [12] = tested on: sedge, umbrella (small-flower umbrella sedge, Cyperus difformis); assay: Test B flooded paddy test; settings: Flood, 0 to 100 scale where 0 is no effect and 100 is complete control; for Plant response rating, Sedge, Umbrella: 13 to 15 d
# Procedure, shortened: as §2
# [13] = tested on: barnyardgrass (Echinochloa crus-galli); assay: Test A preemergence
# Procedure, shortened: as §1
# Kochia (Kochia scoparia) [14] = assay: Test A preemergence
# Procedure, shortened: as §1
# [15] = tested on: ryegrass, Italian (Italian ryegrass, Lolium multiflorum); assay: Test A preemergence
# Procedure, shortened: as §1
# [16] = tested on: ragweed (common ragweed, Ambrosia elatior); assay: Test A preemergence
# Procedure, shortened: as §1
# [17] = tested on: giant foxtail (Setaria faberii); assay: Test A preemergence
# Procedure, shortened: as §1
# [18] = tested on: pigweed (Amaranthus retroflexus); assay: Test A preemergence
# [19] = 125 g ai/ha, postemergence, visual rating after approx. 10 d, 0 to 100 scale (0 no effect, 100 complete control)
# [20] = Postemergence, 500 g ai/ha, 0 to 100 scale where 0 is no effect and 100 is complete control
# [21] = 125 g ai/ha, Preemergence, visual injury after approximately 10 d, 0 to 100 scale where 0 is no effect and 100 is complete control
# [22] = Preemergence, 500 g ai/ha, visual injury approx. 10 d
# [23] = 500 g ai/ha, preemergence, 0 to 100 scale, 0 = no effect, 100 = complete control
# [24] = 500 g ai/ha, postemergence, visual injury, 0 to 100 scale (0 no effect, 100 complete control), approx. 10 d
# [25] = 125 g ai/ha, postemergence, visual injury vs untreated controls after approx. 10 d, 0 = no effect, 100 = complete control
# [26] = Postemergence, 31 g ai/ha, visual injury after approx. 10 d, 0 to 100 scale, 0 no effect, 100 complete control
# [27] = 31 g ai/ha, Preemergence, 0 to 100 scale where 0 is no effect and 100 is complete control
# [28] = 125 g ai/ha, preemergence, 0 to 100 scale where 0 is no effect and 100 is complete control, approx. 10 d
smiles,measurement,setting,value
O=C1NCC(c2ccsc2Cl)C1C(=O)Nc1ccccc1F (stereo not drawn) [Compound 599],"Plant response rating, Corn",corn (Zea mays); [19],0
same,"Plant response rating, Corn",corn (Zea mays); [20],0
same,"Plant response rating, Barnyardgrass",[1]; [19],0
same,"Plant response rating, Barnyardgrass",[1]; [20],20
same,"Plant response rating, Kochia",Kochia (Kochia scoparia) [2]; [19],0
same,"Plant response rating, Kochia",Kochia (Kochia scoparia) [2]; [20],0
same,"Plant response rating, Ryegrass, Italian",[3]; [19],0
same,"Plant response rating, Ryegrass, Italian",[3]; [20],0
same,"Plant response rating, Ragweed",[4]; [19],0
same,"Plant response rating, Ragweed",[4]; [20],0
same,"Plant response rating, Blackgrass",[5]; [19],0
same,"Plant response rating, Blackgrass",[5]; [20],0
same,"Plant response rating, Wheat",[6]; [19],0
same,"Plant response rating, Wheat",[6]; [20],0
same,"Plant response rating, Foxtail, Giant",[7]; [19],0
same,"Plant response rating, Foxtail, Giant",[7]; [20],0
same,"Plant response rating, Galium",[8]; [19],0
same,"Plant response rating, Galium",[8]; [20],0
same,"Plant response rating, Pigweed",[9]; [19],0
same,"Plant response rating, Pigweed",[9]; [20],0
same,"Plant response rating, Barnyardgrass",[10]; 250 g ai/ha,0
same,"Plant response rating, Ducksalad",[11]; 250 g ai/ha,50
same,"Plant response rating, Rice",rice (Oryra sativa); 250 g ai/ha,0
same,"Plant response rating, Sedge, Umbrella",[12]; 250 g ai/ha,0
same,"Plant response rating, Barnyardgrass",[13]; [21],0
same,"Barnyardgrass plant response rating (0 to 100 scale, 0 is no effect, 100 is complete control)",[13]; [22],30
same,"Plant response rating, Kochia",Kochia (Kochia scoparia) [14]; [21],0
same,"Kochia plant response rating (0 to 100 scale, 0 is no effect, 100 is complete control)",Kochia (Kochia scoparia) [14]; [22],0
same,"Plant response rating, Ryegrass, Italian",[15]; [21],0
same,"Ryegrass, Italian plant response rating (0 to 100 scale, 0 is no effect, 100 is complete control)",[15]; [22],0
same,"Plant response rating, Ragweed",[16]; [21],0
same,"Ragweed plant response rating (0 to 100 scale, 0 is no effect, 100 is complete control)",[16]; [22],0
same,"Plant response rating, Foxtail, Giant",[17]; [21],0
same,"Foxtail, Giant plant response rating (0 to 100 scale, 0 is no effect, 100 is complete control)",[17]; [22],0
same,"Plant response rating, Pigweed",[18]; [21],0
same,"Pigweed plant response rating (0 to 100 scale, 0 is no effect, 100 is complete control)",[18]; [22],0
CN1CC(c2cccc(OC(F)F)c2)C(C)(C(=O)Nc2cccc(F)c2F)C1=O (stereo not drawn) [Compound 619],"Plant response rating, Corn",corn (Zea mays); [19],0
same,"Plant response rating, Corn",corn (Zea mays); [20],0
same,"Plant response rating, Barnyardgrass",[1]; [19],0
same,"Plant response rating, Barnyardgrass",[1]; [20],0
same,"Plant response rating, Kochia",Kochia (Kochia scoparia) [2]; [19],0
same,"Plant response rating, Kochia",Kochia (Kochia scoparia) [2]; [20],0
same,"Plant response rating, Ryegrass, Italian",[3]; [19],0
same,"Plant response rating, Ryegrass, Italian",[3]; [20],0
same,"Plant response rating, Ragweed",[4]; [19],0
same,"Plant response rating, Ragweed",[4]; [20],0
same,"Plant response rating, Blackgrass",[5]; [19],0
same,"Plant response rating, Blackgrass",[5]; [20],0
same,"Plant response rating, Wheat",[6]; [19],0
same,"Plant response rating, Wheat",[6]; [20],0
same,"Plant response rating, Foxtail, Giant",[7]; [19],0
same,"Plant response rating, Foxtail, Giant",[7]; [20],0
same,"Plant response rating, Galium",[8]; [19],0
same,"Plant response rating, Galium",[8]; [20],0
same,"Plant response rating, Pigweed",[9]; [19],0
same,"Plant response rating, Pigweed",[9]; [20],0
same,"Plant response rating, Barnyardgrass",[10]; 250 g ai/ha,0
same,"Plant response rating, Ducksalad",[11]; 250 g ai/ha,0
same,"Plant response rating, Rice",rice (Oryra sativa); 250 g ai/ha,0
same,"Plant response rating, Sedge, Umbrella",[12]; 250 g ai/ha,0
same,"Plant response rating, Barnyardgrass",[13]; [21],0
same,"Plant response rating, Barnyardgrass",[13]; [23],0
same,"Plant response rating, Kochia",Kochia (Kochia scoparia) [14]; [21],20
same,"Plant response rating, Kochia",Kochia (Kochia scoparia) [14]; [23],20
same,"Plant response rating, Ryegrass, Italian",[15]; [21],0
same,"Plant response rating, Ryegrass, Italian",[15]; [23],0
same,"Plant response rating, Ragweed",[16]; [21],0
same,"Plant response rating, Ragweed",[16]; [23],0
same,"Plant response rating, Foxtail, Giant",[17]; [21],0
same,"Plant response rating, Foxtail, Giant",[17]; [23],0
same,"Plant response rating, Pigweed",[18]; [21],0
same,"Plant response rating, Pigweed",[18]; [23],0
O=C1NCC(c2cccc(C(F)(F)F)c2)C1C(=O)Nc1ccc(Cl)cc1F (racemic) [Compound 675],"Plant response rating, Corn",corn (Zea mays); [19],0
same,"Plant response rating, Corn",corn (Zea mays); [24],0
same,"Plant response rating, Barnyardgrass",[1]; [19],40
same,"Plant response rating, Barnyardgrass",[1]; [24],70
same,"Plant response rating, Kochia",Kochia (Kochia scoparia) [2]; [19],0
same,"Plant response rating, Kochia",Kochia (Kochia scoparia) [2]; [24],0
same,"Plant response rating, Ryegrass, Italian",[3]; [19],0
same,"Plant response rating, Ryegrass, Italian",[3]; [24],0
same,"Plant response rating, Ragweed",[4]; [19],0
same,"Plant response rating, Ragweed",[4]; [24],0
same,"Plant response rating, Blackgrass",[5]; [19],0
same,"Plant response rating, Blackgrass",[5]; [24],20
same,"Plant response rating, Wheat",[6]; [19],0
same,"Plant response rating, Wheat",[6]; [24],0
same,"Plant response rating, Foxtail, Giant",[7]; [19],50
same,"Plant response rating, Foxtail, Giant",[7]; [24],80
same,"Plant response rating, Galium",[8]; [19],0
same,"Plant response rating, Galium",[8]; [24],0
same,"Plant response rating, Pigweed",[9]; [19],0
same,"Plant response rating, Pigweed",[9]; [24],0
same,"Plant response rating, Barnyardgrass",[10]; 500 g ai/ha,60
same,"Plant response rating, Ducksalad",[11]; 500 g ai/ha,75
same,"Plant response rating, Rice",rice (Oryra sativa); 500 g ai/ha,15
same,"Plant response rating, Sedge, Umbrella",[12]; 500 g ai/ha,0
same,"Plant response rating, Barnyardgrass",[13]; [21],70
same,"Plant response rating, Barnyardgrass",[13]; [23],80
same,"Plant response rating, Kochia",Kochia (Kochia scoparia) [14]; [21],0
same,"Plant response rating, Kochia",Kochia (Kochia scoparia) [14]; [23],0
same,"Plant response rating, Ryegrass, Italian",[15]; [21],0
same,"Plant response rating, Ryegrass, Italian",[15]; [23],20
same,"Plant response rating, Ragweed",[16]; [21],0
same,"Plant response rating, Ragweed",[16]; [23],0
same,"Plant response rating, Foxtail, Giant",[17]; [21],70
same,"Plant response rating, Foxtail, Giant",[17]; [23],90
same,"Plant response rating, Pigweed",[18]; [21],0
same,"Plant response rating, Pigweed",[18]; [23],0
CN1C[C@@H](c2ccc([N+](=O)[O-])cc2)[C@H](C(=O)Nc2cccc(F)c2F)C1=O [Compound 1165],Corn plant response rating (0 to 100 scale),corn (Zea mays); [25],30
same,"Plant response rating, Corn",corn (Zea mays); [26],0
same,Barnyardgrass plant response rating (0 to 100 scale),[1]; [25],80
same,"Plant response rating, Barnyardgrass",[1]; [26],40
same,Kochia plant response rating (0 to 100 scale),Kochia (Kochia scoparia) [2]; [25],30
same,"Plant response rating, Kochia",Kochia (Kochia scoparia) [2]; [26],30
same,"Ryegrass, Italian plant response rating (0 to 100 scale)",[3]; [25],20
same,"Plant response rating, Ryegrass, Italian",[3]; [26],0
same,Ragweed plant response rating (0 to 100 scale),[4]; [25],0
same,"Plant response rating, Ragweed",[4]; [26],0
same,Blackgrass plant response rating (0 to 100 scale),[5]; [25],0
same,"Plant response rating, Blackgrass",[5]; [26],0
same,Wheat plant response rating (0 to 100 scale),[6]; [25],30
same,"Plant response rating, Wheat",[6]; [26],0
same,"Foxtail, Giant plant response rating (0 to 100 scale)",[7]; [25],70
same,"Plant response rating, Foxtail, Giant",[7]; [26],70
same,Galium plant response rating (0 to 100 scale),[8]; [25],60
same,"Plant response rating, Galium",[8]; [26],20
same,Pigweed plant response rating (0 to 100 scale),[9]; [25],30
same,"Plant response rating, Pigweed",[9]; [26],10
same,Barnyardgrass plant response rating,[10]; 250 g ai/ha,95
same,Ducksalad plant response rating,[11]; 250 g ai/ha,90
same,Rice plant response rating,rice (Oryra sativa); 250 g ai/ha,45
same,"Sedge, Umbrella plant response rating",[12]; 250 g ai/ha,0
same,Barnyardgrass plant response rating,[13]; [27],70
same,Barnyardgrass plant response rating,[13]; [28],90
same,Kochia plant response rating,Kochia (Kochia scoparia) [14]; [27],0
same,Kochia plant response rating,Kochia (Kochia scoparia) [14]; [28],70
same,"Ryegrass, Italian plant response rating",[15]; [27],0
same,"Ryegrass, Italian plant response rating",[15]; [28],0
same,Ragweed plant response rating,[16]; [27],0
same,Ragweed plant response rating,[16]; [28],30
same,"Foxtail, Giant plant response rating",[17]; [27],70
same,"Foxtail, Giant plant response rating",[17]; [28],90
same,Pigweed plant response rating,[18]; [27],40
same,Pigweed plant response rating,[18]; [28],50

# Reference: patent publication US12077503B2, “Substituted cyclic amides and their use as herbicides” (FMC CORPORATION, priority 2015, dated 2024)
